The record followed here is US12404268B2, “2-heteroaryl aminoquinazolinone derivative” (Sumitomo Pharma Co., Ltd., priority 2020, dated 2025).

pIC50: −log10 of the molar value.

In the first test the test system is neurons induced to differentiate from SCN1A gene deficient human iPS cells. As to the kind of experiment: Test for measuring hyperexcitation suppression activity (spontaneous calcium oscillation frequency). The test is classed as cell-based. Conditions: Homo sapiens, Neuron; @0.1 μM; read-out: inhibition rate. The source says:
Test for Measuring Hyperexcitation Suppression Activity Using Neurons Induced to Differentiate from SCN1A Gene Deficient Human iPS Cells
(1) Induction of Differentiation from Human iPS cells to Neurons
Half of the culture solution was exchanged once every 3 to 4 days.
(2) Fluorescent Calcium Probe Treatment, Addition of Compound, and Evaluation of Intracellular Calcium Concentration
Half of the culture solution was removed on day 60 from induction of differentiation or thereafter. A medium for measurement comprising a fluorescent calcium probe (Molecular Device, product name: FLIPR Calcium 6 Assay Bulk Kit, cat #R8191) was added at an amount equal to the remaining medium. The culture was left standing for 30 minutes and subjected to measurement.
The test compounds were serially diluted with a dimethyl sulfoxide (DMSO) solution so that the final concentration would be 0.1 to 100 μM to prepare a concentrate with a concentration that is 6-fold of the final concentration.
The intensity of fluorescence of a calcium probe was measured over time with FDSS7000EX (Hamamatsu Photonics) to evaluate the change in intracellular calcium concentrations. First, the intensity of fluorescence was measured for 2 minutes. The compound solutions were then added using FDSS7000EX for an additional 8 minute measurement of fluorescence intensity. The frequency of spontaneous calcium oscillation was quantified as an indicator of nerve excitation. With the frequency for 2 minutes before the addition of the compound solutions as 100%, the ratio of frequency for the last 2 minutes after addition of the compound solutions was calculated.
In the case of `Cc1ccccc1-n1c(Nc2cncc(F)c2)nc2ccc(F)cc2c1=O` [Example 4, 6-fluoro-2-((5-fluoropyridin-3-yl)amino)-3-(o-tolyl)quinazolin-4(3H)-one], the inhibition at 0.1 µM came out at 88%.
`Cc1cccc(-n2c(Nc3cccnc3)nc3ccc(F)cc3c2=O)c1` [Example 106]: the inhibition at 0.1 µM worked out at 17%.

Still in this test, the particulars now being: Homo sapiens, Neuron; @1 μM; read-out: inhibition rate.
Consider `O=c1c2cc(Cl)ccc2nc(Nc2cnccn2)n1-c1ccccc1` [Example 38, 6-chloro-3-phenyl-2-(pyrazin-2-ylamino)quinazolin-4(3H)-one], for which the inhibition at 1 µM was found to be 88%.
Turning to `O=c1c2cc(F)ccc2nc(Nc2ccnc(F)c2)n1-c1ccccc1` [Example 141, 6-fluoro-2-((2-fluoropyridin-4-yl)amino)-3-phenylquinazolin-4(3H)-one], the inhibition at 1 µM was 97%.
Turning to `O=c1c2ccccc2nc(Nc2cccc3cncn23)n1-c1ccccc1` [Example 63], the inhibition at 1 µM is 23%.
Still for that read-out and setting: with `O=c1c2cc(F)ccc2nc(Nc2cncc(Cl)c2)n1-c1ccccc1` [Example 45, 2-((5-chloropyridin-3-yl)amino)-6-fluoro-3-phenylquinazolin-4(3H)-one] the figure was 100%; with `COc1ccccc1-n1c(Nc2cccnc2)nc2ccc(F)cc2c1=O` [Example 142, 6-fluoro-3-(2-methoxyphenyl)-2-(pyridin-3-ylamino)quinazolin-4(3H)-one], 86%.
For the compound `N#Cc1cncc(Nc2nc3ccc(Cl)cc3c(=O)n2-c2ccccc2)c1` [Example 41, 5-((6-chloro-4-oxo-3-phenyl-3,4-dihydroquinazolin-2-yl)amino)nicotinonitrile], the inhibition at 1 µM stood at 95%.
Take `O=c1c2cc(Cl)ccc2nc(Nc2cccnc2)n1-c1ccccc1F` [Example 51, 6-chloro-3-(2-fluorophenyl)-2-(pyridin-3-ylamino)quinazolin-4(3H)-one]: the inhibition at 1 µM amounted to 100%.
With `O=c1c2cc(F)ccc2nc(Nc2cccnc2)n1C1CCC(F)(F)CC1` [Example 62], the inhibition at 1 µM amounted to 43%.
Regarding `C[C@@H](c1ccccc1)n1c(Nc2cccnc2)nc2ccc(F)cc2c1=O` [Example 163], the inhibition at 1 µM was 70%.
The same measure, in the same setting: with `O=c1c2cc(F)ccc2nc(Nc2cccnc2)n1C1(c2ccccc2)CC1` [Example 153] the figure was 99%; with `O=c1c2cc(F)ccc2nc(Nc2cccnc2)n1-c1ccc(Cl)cc1` [Example 135], 24%; with `C[C@]1(N)CC[C@@H](n2c(Nc3cccnc3)nc3ccc(F)cc3c2=O)CC1` [Example 89], 20%.
The same measure, in the same setting: with `Cc1ccccc1-n1c(Nc2cccnc2)nc2c(F)cccc2c1=O` [Example 122] the figure was 61%.
Turning to `O=c1c2ccccc2nc(Nc2ccc3ocnc3c2)n1-c1ccccc1` [Example 1, 2-(benzo[d]oxazol-5-ylamino)-3-phenylquinazolin-4(3H)-one], the inhibition at 1 µM stood at 31%.
Consider `COc1cccc(-n2c(Nc3cccnc3)nc3ccc(F)cc3c2=O)c1` [Example 133], for which the inhibition at 1 µM is 51%.
Turning to `Cc1ccccc1-n1c(Nc2cccnc2)nc2cc(F)ccc2c1=O` [Example 121], the inhibition at 1 µM is 28%.
As to `Cc1cccc(Nc2nc3ccc(F)cc3c(=O)n2-c2ccccc2)n1` [Example 138], the inhibition at 1 µM is 70%.
As to `COc1ccncc1Nc1nc2ccc(Cl)cc2c(=O)n1-c1ccccc1` [Example 23], the inhibition at 1 µM came to 61%.
Regarding `Cc1nc(Nc2nc3ccc(F)cc3c(=O)n2-c2ccccc2)cs1` [Example 174], the inhibition at 1 µM turned out to be 78%.
The same measure, in the same setting: with `O=c1c2cc(F)ccc2nc(Nc2cccnc2)n1-c1cccnc1` [Example 35, 6-fluoro-3-(pyridin-3-yl)-2-(pyridin-3-ylamino)quinazolin-4(3H)-one] the figure was 88%; with `COc1ccc(-n2c(Nc3cccnc3)nc3ccc(F)cc3c2=O)cc1` [Example 143], 45%.

The test is the same for the next values; noted with them: Homo sapiens, Neuron; @10 μM; read-out: inhibition rate.
As to `COCc1nccc(Nc2nc3ccc(Cl)cc3c(=O)n2-c2ccccc2)n1` [Example 21], the inhibition at 10 µM is 27%.
Consider `O=c1c2cc(F)ccc2nc(Nc2cccnc2)n1C1CC1` [Example 165], for which the inhibition at 10 µM is 100%.
Still for that read-out and setting: to `O=c1c2ccccc2nc(Nc2ccon2)n1-c1ccccc1` [Example 232] belongs 73%; to `CN1[C@@H]2CC[C@H]1C[C@H](n1c(Nc3cccnc3)nc3ccc(F)cc3c1=O)C2` [Example 85], 59%; to `O=c1c2cc(F)ccc2nc(Nc2cccnc2)n1CC1CCCCC1` [Example 155], 81%.
As for `O=c1c2ccccc2nc(Nc2cccc3cnoc23)n1-c1ccccc1` [Example 67], the inhibition at 10 µM is 100%.
Turning to `Cn1ccc(Nc2nc3ccc(F)cc3c(=O)n2-c2ccccc2)c1` [Example 182], the inhibition at 10 µM was found to be 72%.
In the case of `Cc1nccc(Nc2nc3ccc(Cl)cc3c(=O)n2-c2ccccc2)n1` [Example 36], the inhibition at 10 µM was 32%.
For the compound `Cc1ccncc1Nc1nc2ccc(F)cc2c(=O)n1-c1ccccc1` [Example 47], the inhibition at 10 µM stood at 89%.
`CN1CC[C@H](n2c(Nc3cccnc3)nc3ccc(F)cc3c2=O)C1` [Example 82]: the inhibition at 10 µM was determined as 17%.
Consider `O=c1c2cc(F)ccc2nc(Nc2ncccc2F)n1-c1ccccc1` [Example 126], for which the inhibition at 10 µM worked out at 80%.
`Cc1nn(C)c(C)c1-n1c(Nc2cccnc2)nc2ccc(F)cc2c1=O` [Example 154]: the inhibition at 10 µM worked out at 98%.
As for `O=c1c2cc(Cl)ccc2nc(Nc2ccnnc2)n1-c1ccccc1` [Example 34], the inhibition at 10 µM amounted to 57%.
The same measure, in the same setting: with `COc1ccc(Nc2nc3ccc(F)cc3c(=O)n2-c2ccccc2)nc1` [Example 149] the figure was 32%.
As for `O=c1c2ccccc2nc(Nc2cccnc2)n1C1CCC(F)(F)CC1` [Example 58], the inhibition at 10 µM is 100%.
In the case of `CN1CC(c2ccccc2)(n2c(Nc3cccnc3)nc3ccc(F)cc3c2=O)C1` [Example 176], the inhibition at 10 µM was 88%.
Same read-out and setting: to `NCCn1c(Nc2cccnc2)nc2ccc(F)cc2c1=O` [Example 179] belongs 98%.
Still for that read-out and setting: with `O=c1c2cc(F)ccc2nc(Nc2cccnc2)n1C1CCCCC1` [Example 61] the figure was 79%; with `CN1CC[C@H](n2c(Nc3cccnc3)nc3ccccc3c2=O)C1` [Example 77], 26%; with `COc1ccc(Nc2nc3ccc(Cl)cc3c(=O)n2-c2ccccc2)cn1` [Example 22], 70%.
Take `CC(C)n1c(Nc2cccnc2)nc2ccccc2c1=O` [Example 55]: the inhibition at 10 µM is 88%.
For the compound `Cc1ncccc1Nc1nc2ccc(Cl)cc2c(=O)n1-c1ccccc1` [Example 24], the inhibition at 10 µM was determined as 54%.
As for `CCc1ccc(Nc2nc3ccc(F)cc3c(=O)n2-c2ccccc2)cn1` [Example 50], the inhibition at 10 µM was determined as 100%.

The test is the same for the next values; noted with them: Homo sapiens, Neuron; @100 μM; read-out: inhibition rate.
As for `COc1cnccc1Nc1nc2ccc(F)cc2c(=O)n1-c1ccccc1` [Example 144], the inhibition at 100 µM stood at 16%.
The same measure, in the same setting: to `O=c1c2cc(F)ccc2nc(Nc2cnoc2)n1-c1ccccc1` [Example 172] belongs 100%; to `O=c1c2cc(F)ccc2nc(Nc2cccnc2)n1C1CCN(C2CC2)CC1` [Example 170], 100%; to `O=c1c2cc(F)ccc2nc(Nc2cccnc2)n1-c1cncc(F)c1` [Example 184], 54%.
As to `COc1ccc2nc(Nc3cccnc3)n(-c3ccccc3)c(=O)c2c1` [Example 13], the inhibition at 100 µM was 20%.
For `Cc1ccc2c(=O)n(-c3ccccc3)c(Nc3cccnc3)nc2c1` [Example 86], the inhibition at 100 µM worked out at 31%.

The same test, now with this note: Neuron; SCN1A gene deficient human iPS cell-derived neurons; FLIPR Calcium 6, FDSS7000EX; read-out: IC50 (50% inhibitory concentration, frequency of spontaneous calcium oscillation).
In the case of `O=c1c2cnccc2nc(Nc2cccnc2)n1-c1ccccc1` [Example 189], the pIC50 was under 5.00.
As to `Cc1ccc(Nc2nc3ccc(Cl)cc3c(=O)n2-c2ccccc2)cn1` [Example 8], the pIC50 is 6.00.
For the compound `O=c1c2cc(Cl)ccc2nc(Nc2cnccc2C(F)(F)F)n1-c1ccccc1` [Example 11], the pIC50 was 5.24.
As to `CS(=O)(=O)Nc1ccc2nc(Nc3cccnc3)n(-c3ccccc3)c(=O)c2c1` [Example 211], the pIC50 is under 4.00.
On to `O=c1c2cc(F)ccc2nc(Nc2cccnn2)n1-c1ccccc1` [Example 18], for which the pIC50 was 6.10.
With `O=c1c2cc(Cl)ccc2nc(Nc2ccc3nccnc3c2)n1-c1ccccc1` [Example 5], the pIC50 was 5.21.
Take `COc1cccnc1Nc1nc2ccc(F)cc2c(=O)n1-c1ccccc1` [Example 188]: the pIC50 is under 5.00.
For `CN(C)c1cncc(-n2c(Nc3cccnc3)nc3ccc(F)cc3c2=O)c1` [Example 215], the pIC50 was under 5.00.
`O=c1c2ccncc2nc(Nc2cccnc2)n1-c1ccccc1` [Example 192]: the pIC50 was under 5.00.
Same read-out and setting: to `O=c1c2cc(F)ncc2nc(Nc2cccnc2)n1-c1ccccc1` [Example 190] belongs under 5.00; to `COc1cc2nc(Nc3cccc4ncccc34)n(C)c(=O)c2cc1OC` [Example 220], under 5.00; to `CC1(n2c(Nc3cccnc3)nc3ccc(F)cc3c2=O)CC1` [Example 196], under 5.00.
